Experimental data as given in patent US20060257875A1, “Affinity screening using "one-bead-one-compound" libraries” (Carlsberg A/S, priority 2003, published 2006).
Where “and” joins values, the source holds several entries; their conditions need not be identical. Equal entries are not always repeated. Entries after “also recorded” stand apart in the source; their conditions may differ. Starred links: 1 amine or outer side, 2 acyl side, 3 side chain; linkers in the order of their positions; H or OH if unused. Non-standard residues stand in square brackets, D forms with d. Primed or numbered codes have the meaning given here. No end group written: not given here. Pip′ = 4-phenyl-piperidine-4-carboxylic acid, O=C(C1(c2ccccc2)CCN([*:1])CC1)[*:2]; Abi = 3-amino-3-(biphenyl)-propanoic acid; 3Pal = N[C@@H](Cc1cccnc1)C(=O)O; GlcNN = not defined here; Acm′ = not defined here; ManN = not defined here; ManS = not defined here

test system: six protein mixture: Con A, P. sativum lectin, L. culinaris lectin, W. floribunda lectin, Glyceraldehyde 6-phosphate, bovine serum albumin; test: Solid phase screening of Library 3 with labeled six protein mixture; affinity purification, gel electrophoresis and Edman degradation; type: binding; conditions: not given

| Molecule | selectivity of binding among the lectins |
| --- | --- |
| GlcNN-Trp-Phe-Asp-Trp-Pro ([GlcNN]WFDWP; reading uncertain) | binds only to Con A and not to the other lectins |

same assay, conditions: Library 3 ligand on PEGA6000 resin; six protein mixture

| Molecule | Identified Protein(s) |
| --- | --- |
| GlcNN-Trp-Phe-Asp-Trp-Pro ([GlcNN]WFDWP; reading uncertain) | Con A |
| GlcNN-Val-GlcNN-His-ManS-Gly | Con A, P. sativum; also recorded: lectin |
| HTWGYW | Con A |
| ManN-Phe-Trp-Ser-Lys-His ([ManN]FWSKH; reading uncertain; also: printed as ManN-Phe-Trp-Ser-Lys-His) | Con A, P. sativum; also recorded: lectin |
| ManS-Gly-ManS-Asp-Asn-Ala ([ManS]G[ManS]DNA; reading uncertain; also: printed as ManS-Gly-ManS-Asp-Asn-Ala) | Con A, P. sativum; also recorded: lectin |

same assay, conditions: six protein mixture

| Molecule | selectivity of binding among the lectins |
| --- | --- |
| HTWGYW | binds selectively to Con A |

test system: phenylephrine (PE)-treated myocyte proteins; test: Solid phase screening of Library 1 with labeled myocyte proteins; bound proteins identified by on-bead digest and peptide mass fingerprinting; type: binding, neonatal Wistar rats; conditions: Library 1 ligand on PEGA4000 bead; Phenylephrine Treated (Hyperthrophic) Myocytes
Protocol: (§1) Myocytes were prepared from 1 to 5 day old neonatal Wistar rats (University of Copenhagen) according to literature procedure described in Busk et al., 2002, Cardiovasc. Res., 56: 64-75 and plated into eight P10 culture plates at 6 million cells/plate.
(§2) Protein was extracted from myocytes prepared as described above for Example 9, using a new procedure modified from existing protocols, primarily: Arrott, et al., 1998, Anal Biochem. 258: 1-18. The media was removed from plates and adhered cells were treated for 10 minutes with ice cold phosphate buffer (0.25 mL, 10 mM, pH 7.5, augmented with 0.15 M NaCl 60 mM Benzamidine HCl, 5 mM EDTA, 10 μg/n E-64, 10 μg/mL Leu-peptin, 10 μg/mL Pepstatin A, and 1 mM PMSF). The cells were scraped off the plates and then lysed (on ice) in a sonicator (2×) using 10 seconds off/10 seconds on cycles.
(§3) The resulting suspension was augmented with CHAPS, DTT, and urea to a final concentration of CHAPS (1% w/v), DTT (5 mM), and urea (8 M). After 10-15 minutes on ice, the solution was centrifuged for 10 minutes at 15,000 rpm at 4° C. The supernatant was removed and protein content quantified using the NanoOrange Protein test (Molecular Probes, Eugene, Oreg.): Total protein recovered: 70.5 μg for PE-treated cells and 60 μg for basal cells.
(§4) Fluorescent dye Oregon Green 514 (OR) (Molecular Probes) was used to label the healthy/basal cells while Rhodamine Red (RR) (Molecular Probes) was used to label the PE-treated cells. The labeling procedures were carried out according to the manufacturer's protocol. The protein solutions (0.25 mL, 50.4 μg for PE cells and 0.25 mL, 42.8 μg for basal cells) were dialyzed against a solution of 10 mM phosphate buffer, 0.15 M NaCl, pH 7.5 and then 1 M NaHCO3 (0.025 mL) added to a final pH of 8.5. 10 μL of dye in dry DMF (10 mg/mL) was added and the sample stirred at room temperature for 2 hours. The protein solution was dialyzed extensively against 10 mM phosphate buffer, 0.15 M NaCl, pH 7.5, to remove excess dye.
(§5) Ligand library 1 (200 mg), prepared as described for Example 5, was transferred to a syringe fitted with a stop-valve and the ligand-beads were washed for 10 minutes (3×) with 10 mM phosphate buffer, pH 6.8, supplemented with 0.15 M NaCl, 1 mM Ca^2+, 1 mM Zn^2+, 1 mM Mn^2+, 1 mM Cu^2+, and 1 mM Mg^2+ (3 mL). The ligand-beads were treated with a 1% BSA solution for 30 minutes, then washed with buffer (1×). A mixture of labeled myocyte proteins, including both PE-induced protein (138 μL, 40 μg) and basal protein (167 μL, 40 μg) obtained as described above for Example 11, was prepared in 1.2 mL buffer, and added to the ligand library in the syringe. The proteins and ligand library were incubated at room temperature for 16 hours. The library was then washed with buffer for 5 minutes then with water for 3×5 minutes. The library was examined under a fluorescence microscope and brightly fluorescent red, green, and yellow beads (yellow indicative of both dyes red and green binding; the majority of the beads) were present, as well as unlabelled beads. The fluorescent beads were separated and retained for analysis.
(§6) The fluorescent ligand library beads containing bound protein obtained as described in Example 15 were sorted using a COPAS (250) NF Bead Sorter (Union Biometrica, Somerville, Mass.) equipped with a single flourescence emission. Beads emitting fluorescence of only one color contain proteins from one physical state, e.g. proteins expressed only in the PE-induced hypertrophic state (red) or proteins expressed only in the basal state (green). Since the instrument measures one fluorescence emission at a time, beads containing one type of color fluorescence were first sorted and then beads were resorted for emissions from the other fluorescence color. The library was first sorted such that all beads containing significant green fluorescence, basal proteins from healthy myocytes, were isolated. […]

| Molecule | Identified Protein(s) |
| --- | --- |
| Abi-Phe-Abi-Phe-Che-Tyr | Cathepsin E (gi 4503145); Ribosomal proteins (60s L; also recorded: series) (gi 20826861) |

test system: normal (basal) myocyte protein mixtures; test: as above; type: binding, neonatal Wistar rats; conditions: Library 1 ligand on PEGA4000 bead; Normal Myocytes; proteins primarily present in basal cells
Protocol: as §1, §2, §3, §4, §5, §6

| Molecule | Identified Protein(s) |
| --- | --- |
| FTYFAK | Serine/threonine Protein kinase (gi 5730055); Carbonic; also recorded: anhydrase VII (gi 10304383) |
| His-Tyr-Pip-Thr-Acm-Abi (HY[Pip′]T[Acm′][Abi]; reading uncertain; also: printed as His-Tyr-Pip-Thr-Acm-Abi) | Chain C P27 cyclin A-CDK2 complex: (Cyclin A?) (gi and 2392395); Hypothetical protein XP_154035. |
| Phe-Gua-Asp-Abi-His-Aze | Hypothetical protein XP_043250 (gi 14773490) |
| Phe-Phe-Phe-Pip-Aze-Gua | Phosphatidyl choline-sterol acyl transferase (400167;; also recorded: LCAT-PIG_9) |
| Phe-Ppy-Acc-Ala-Ppy-Hpy | Hypothetical proteins; Troponin T gi 547047;; (Phospho-; also recorded: lipase C (MA); Phosphatidyicholine sterol acyl trans-; also recorded: ferase (400167;LCAT-PIG_9)) |
| Phe-Thr-Pya-Pip-Asp-His (FT[3Pal][Pip′]DH) | (Sodium channel (gi 18591322) (M); Chloride channel (gi and 6978663/4502867) (M)) Troponin I (gi 1351298);; Zn Fin- and ger protein (gi 18591322) (MA); SPTR (peroxisomal Ca and dependent solute carrier (putative) (gi 12853685); and Beta-2 adnergic receptor (gi 12699028) |
| Pip-Pal-Pal-Phe-Pya-Pip | 544086) (M); Ribosomal proteins (60s) (gi 21426891); and SPTR (gi 20837095) (M) and Ca2+/Calmodulin activated Myosin light chain kinase (gi and 284660) (LA, MA); Regulator of G-Protein Signalling and (RGS14) variant (gi 2708808) ATP Synthase component and (subunit e) (gi 258788) (M);; Cytochrome P450 (gi |
| Pya-Gua-Pip-Acc-Phe-Pip | NADH dehydrogenase; ATP binding component (gi 18598538); also recorded: (M); Myosin heavy polypeptide 9 (gi 13543854); Histone; also recorded: associated proteins (gi 20893760) (M) |
| Pya-Hyp-Hyp-Phe-Acm-Tyr | Troponin T (gi 547047); Ca2+/Calmodulin activated My-; also recorded: osin light chain kinase (gi 284660) (LA, MA); cGMP-; also recorded: dependent protein kinase (gi 284660) (LA) |

test system: basal myocyte protein; test: Solid phase screening of Library 6 with unlabeled myocyte proteins; silver staining, on-bead tryptic digest; type: binding, neonatal Wistar rats; conditions: Normal Myocytes
Protocol: as §1
Isolated proteins that bound to specific ligands were identified using peptide mass fingerprinting. Mass spectra were recorded on a Bruker Reflex m MALDI time-of-flight mass spectrometer (Bruker-Daltonics, Bremen, Germany) operated in the positive reflectron mode using delayed extraction. Measurements were performed using the following parameters: Power 83-84 V; lens 7.300. The sum of 200-300 shots was used for each spectrum.
The spectra were calibrated using bradykinin peptide. In some cases, internal mass calibration was performed using a porcine trypsin autolysis product Peptide masses were searched against peptide mass maps in the National Center for Biotechnology Information (NCBI) database using the following search engines found on the world wide web (www.) for each of: • MS-FIT (prospector.ucsf.edu/ucsfhtml/msfit.htm), • Profound (129.85.19.192/profound_biniWebProFound.exe), and • MASCOT (matrixscience.com).
A search was performed using the NCBI bacterial (E. coli) database and the mammalian databases for the isolated proteins from the E. coli and myocyte samples, respectively, and the Swiss Prot mammalian databases and the Swiss Prot viral databases were searched to identify the porcine macrophage proteins and proteins, respectively. A molecular mass range was estimated from 0-250 K Da, allowing a mass accuracy that varied from 0.1 Da (some cases 0.3 Da) for each peptide mass. A large pI range from 0-14 or 0-12 was considered for each search. If no proteins matched, the mass window was extended. Partial enzyme cleavages allowing for two missed cleavage sites and modification of cysteine by alkylation were considered in the search approaches. A protein was considered identified if the matched peptides covered at least 30% of the complete sequence. A match of less than 30% was considered in some cases, if prominent peaks were obtained. Usually, four or more peptides were used for identification. In some instances, hypothetical proteins or gene products, such as biochemical material, either RNA or protein, calculated from the expected expression of a gene and to which a function may be assigned based on sequence homology, were identified.
Protein was extracted from myocytes prepared as described above for Example 9, using a new procedure (to preserve the activity of metalloproteases) modified from existing protocols, primarily: Amott, et al., 1998, Anal. Biochem. 258: 1-18. The media was removed from plates and cells were washed with ice cold phosphate buffer (5 ml, 10 mM, pH 7.5, supplemented with 0.15 M NaCl,) to remove traces of media components. The adhered cells were treated for 10 minutes with ice cold phosphate buffer (2 mL, 10 mM, pH 7.5, augmented with 0.15 M NaCl, […] E-64, 10 μg/mL Leupeptin, and 10 μg/mL Pepstatin A). The cells were scraped off the plates and then lysed (on ice) in a sonicator (2×) using 10 seconds off/110 seconds on cycles.
The resulting suspension was augmented with CHAPS (1% w/v), KCl (50 mM), NaCl (0.5 M), ZnCl2 (0.1 mM), DTT (5 mM), and urea (2 M). After 10-15 minutes on ice, the solution was centrifuged for 10 minutes at 15,000 rpm at 4° C. The supernatant was removed and protein content quantified using the NanoOrange Protein test (Molecular Probes, Eugene, Oreg.): Total protein recovered: 195 μg for PE-induced cells and 200 μg for basal cells.
The protein solutions were dialyzed extensively against 20 mM MES (2-[N-Morpholino]ethanesulfonic acid) buffer pH 6.0, supplemented with 0.15 M NaCl and 1 mM ZnCl2 to remove excess detergent and urea. […]

| Molecule | Identified Protein(s) |
| --- | --- |
| CC(C)C(NC(CCCCN)C(=O)N1CCN(C(=O)OC(C)(C)C)CC1)C(C)C (stereo not drawn) | Angiotensin converting enzyme (P22967). |
| CCC(CCO)NC(CCCCN)C(=O)N1CCN(C(=O)OC(C)(C)C)CC1 (stereo not drawn) | Angiotensin converting enzyme (P22967). |
| CCOC(=O)C1CCCCC1NC(CCCCN)C(=O)NC(CCCCNC(=O)OC(C)(C)C)C(=O)O (stereo not drawn) | Angiotensin converting enzyme (P22967); U2 nuclear ribonuceoprotein zuxiliary factor (gi 2842676). |
| CCCCCCNC(=O)C(CCCCN)NC1CCCCC1C(=O)OCC (stereo not drawn) | Inward rectifier potassium channel 13 (Q9QZ65, IRKD_CAVPO); Sulfonylurea receptor 2 (Q63563); small conductance potassium channel (P58391). |
| CCCCCCNC(=O)C(CCCCN)NC(CC)CCO (stereo not drawn) | Myosine heavy chain, nonmuscular type (AQ62812); Hypothetical protein E330017A01 (XP-148690.1). |
| CCOC(=O)C(CCc1ccccc1)NC(CCCCN)C(=O)N[C@@H](C)C(=O)O (stereo partly drawn) | Testase 1 or disintegrin 5 containing metalloproteinase domain 24 (gi 31981793); ADP-ribosylation factor like protein 8 (Q96KC2). |
| CCOC(=O)C1CCCCC1NC(CCCCN)C(=O)N[C@@H](C)C(=O)O (stereo partly drawn) | Golgi coiled coil protein GCC185 (Q8CHG3). |
| CC(C)C(NC(CCCCN)C(=O)C[C@@H](C)C(=O)O)C(C)C (stereo partly drawn) | Mysoin heavy chain nonmuscular type (AQ62812). |
| CCOC(=O)C(CCc1ccccc1)NC(CCCCN)C(=O)N1CCC[C@H]1C(=O)O (stereo partly drawn) [drawing 164] | Angiotensin converting enzyme (P22967); U2 nuclear ribonucleoprotein auxxiliary factor (gi 2842676). |
| CCCCCCNC(=O)C(CCCCN)NC(C(C)C)C(C)C (stereo not drawn) [drawing 170] | Heat Shock protein 70 kDa protein 12A (Q8KOU4); Ser- ine/threonine protein kinase (O88866); Ras GTPase acti- vating protein 2 (GAP1m) (58069). |
